Consider 24 compounds from patent US8377895B2, “Cyclin-dependent protein kinases inhibitors of Scutellaria flavonoid organic amine derivatives, synthesis and use thereof” (priority 2008, dated 2013).

For one data set, the target named is Cdk1/Cyclin B (Homo sapiens, UniProt P06493). Kind of data set: Cdk1/Cyclin B inhibitory activity, Z'-LYTE Kinase Assay. It is filed as biochemical. The note with it: for IC50: ATP 10 μM, 8 concentrations of 0.01-25 μM.
For the next data set, the system named is Prostate (PC-3). Kind of data set: Anticancer activity in vitro (Table 3), PC-3. The format is cell-based, human. The note with it: 48 h; for GI50 / IC50 / LC50: Homo sapiens.
The test system of a further data set is gastric (BGC-823). Kind of data set: Anticancer activity in vitro (Table 3), BGC-823. The note with it: for GI50 / IC50 / CC50: Homo sapiens, BGC-823, 48 h; for BGC-823 TGI: 48 h; for CC50: read-out: BGC-823 LC50. It is filed as cell-based, human.
The test system of another data set is MCF-7. Kind of data set: cells. The note with it: Homo sapiens; for CC50: MCF7, read-out: MCF-7 LC50; for GI50: MCF7, read-out: MCT-7 GI50.
A short description of data set [1]: Druggability screening: protein binding rate. The format is in vitro ADME.
A short description of data set [2]: Druggability screening: solubility in PBS (pH7.4). The format is physicochemical. The note with it: pH 7.4, aqueous buffer.
The next data set deals with Breast (MCF-7). As to the kind of experiment: Anticancer activity in vitro (Table 3), MCF-7. The note with it: for MCF-7 TGI: 48 h; for GI50 / IC50 / CC50: Homo sapiens, MCF7, 48 h; for CC50: read-out: MCF-7 LC50. The format is cell-based, human.
The subject of data set [3] is 58 kinds human tumor cell. Kind of data set: NCI growth inhibition of 58 kinds human tumor cell. The format is cell-based. The note with it: 48 h, by NCI, read-out: growth inhibition rates in vitro 58 kinds human tumor cell.
The conditions of data set [4]: in vivo.
The next data set deals with CD4+T lymphocytes. Kind of data set: Differentiate growth inhibition of CD4+T lymphocytes. It is filed as cell-based. The note with it: 48 h, induced by growth factor IL-3 and IL-5, read-out: differentiate growth inhibition rates of CD4+T lymphocytes. The text has this:
These show a good prospect against AIDS, and are going to be prepared anti-AIDS drugs.

Converted amounts (≈) assume the structure as drawn.

Cdk1/Cyclin B, sequence (P06493 whole entry): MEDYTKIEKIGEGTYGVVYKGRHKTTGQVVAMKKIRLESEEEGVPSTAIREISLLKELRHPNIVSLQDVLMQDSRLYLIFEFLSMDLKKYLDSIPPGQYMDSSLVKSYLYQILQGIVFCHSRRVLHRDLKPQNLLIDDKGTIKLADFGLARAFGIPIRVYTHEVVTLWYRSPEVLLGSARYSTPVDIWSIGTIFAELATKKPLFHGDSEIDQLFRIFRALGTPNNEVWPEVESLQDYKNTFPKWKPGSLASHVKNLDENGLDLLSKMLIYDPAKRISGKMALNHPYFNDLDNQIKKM
Cdk1/Cyclin B, sequence (P14635 whole entry partner): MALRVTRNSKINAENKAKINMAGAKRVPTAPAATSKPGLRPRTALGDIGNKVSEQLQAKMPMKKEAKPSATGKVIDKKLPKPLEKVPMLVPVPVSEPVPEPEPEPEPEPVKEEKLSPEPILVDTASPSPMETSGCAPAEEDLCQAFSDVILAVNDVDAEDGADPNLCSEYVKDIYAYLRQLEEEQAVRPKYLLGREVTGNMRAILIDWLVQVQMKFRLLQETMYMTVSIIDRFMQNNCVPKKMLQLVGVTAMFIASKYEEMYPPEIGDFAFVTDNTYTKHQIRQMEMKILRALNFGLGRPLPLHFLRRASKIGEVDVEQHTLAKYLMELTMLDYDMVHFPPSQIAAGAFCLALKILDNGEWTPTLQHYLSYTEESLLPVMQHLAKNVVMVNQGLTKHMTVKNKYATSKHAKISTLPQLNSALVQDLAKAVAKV

The term IC50 denotes the point on the concentration scale where inhibition reaches its midpoint. A lower IC50 goes with greater potency. The GI50 is the concentration at which growth is held to half of that of the control. Consider `COc1c(O)c(CN2CCN(C)CC2)c2oc(-c3ccccc3)cc(=O)c2c1O` [6-OCH3— Methylpiperazine Baicalein], for which the IC50 at Cdk1/Cyclin B was determined as 0.88 µM. Also, in the data set with Prostate (PC-3), the “PC-3 TGI” value was 76.1 µM, the concentration for 50% growth inhibition (GI50) is 11.2 µM and the IC50 was found to be 87.6 µM. In the data set with gastric (BGC-823), this compound came in with a GI50 of 26.2 µM and an IC50 of 115 µM. For the same compound, in the data set with MCF-7, the CC50 was greater than 100 µM and the GI50 amounted to 26.1 µM.

Turning to `O=C(O)[C@H]1O[C@@H](Oc2cc3oc(-c4ccccc4)cc(=O)c3c(O)c2O)[C@H](O)[C@@H](O)[C@@H]1O` [Baicalin, reference compound], at Cdk1/Cyclin B, the “inhibition against Cdk1/Cyclin B (in words)” value is on record as “slight inhibition” and the IC50 stood at 18.1 µM.

`COc1c(O)c(CN(CCO)CCO)c(O)c2c(=O)cc(-c3ccccc3)oc12` [Diethanolamin Wogonin, 6-((bis(2-hydroxyethyl)amino)methyl)-5,7-dihydroxy-8-methoxy-2-phenyl-4H-chromen-4-one] returned an IC50 against Cdk1/Cyclin B of 0.31 µM. This counts as sub-micromolar.

As to `CN(C)Cc1c(O)c(O)c(O)c2c(=O)cc(-c3ccccc3)oc12` [Dimethylamine Baicalein], in the data set with MCF-7, the GI50 is 12.3 µM.

As for `COc1c(O)c(CN(C)C)c(O)c2c(=O)cc(-c3ccccc3)oc12` [Dimethylamine Wogonin, 6-((dimethylamino)methyl)-5,7-dihydroxy-8-methoxy-2-phenyl-4H-chromen-4-one], the IC50 against Cdk1/Cyclin B was found to be 7.63 µM. That is a single-digit micromolar value.

Regarding `CN1CCC(c2c(O)cc(O)c3c(=O)cc(-c4ccccc4Cl)oc23)C1CO` (stereo not drawn) [Example P276-00, reference compound], half-maximal inhibition against Cdk1/Cyclin B (IC50) required 0.79 µM.

Consider `CN1CC[C@H](c2c(O)cc(O)c3c(=O)cc(-c4ccccc4Cl)oc23)[C@H](O)C1` [Flavopiridol, reference compound], for which the GI50 with MCF-7 was found to be 0.048 µM.

The fraction unbound is free concentration divided by total concentration. Higher therefore signals much free substance. In general, solubility refers to how much of the substance goes into solution per volume. A low value points to little dissolved substance. By LC50 is commonly meant the concentration that kills 50% of the test population. A high value points to a less lethal substance. As usually defined, the inhibition is the percentage by which the read-out fell short of the control. As usually defined, the half-life is the time in which the quantity being followed falls by half. Higher therefore signals slow loss. As to `O=c1cc(-c2ccccc2)oc2c(CN3CCN(CCO)CC3)c(O)c(O)c(O)c12` [Hydroxyethylpiperazine Baicalein, 5,6,7-trihydroxy-8-((4-(2-hydroxyethyl)piperazin-1-yl)methyl)-2-phenyl-4H-chromen-4-one], 0.28 µM corresponded to half-maximal inhibition against Cdk1/Cyclin B (IC50). In [1], the fraction unbound was 0.04. This compound also yielded a solubility in data set [2] of 607 µM (≈ 250 µg/mL). Moreover, in the data set on Prostate (PC-3), the “PC-3 TGI” value came out at 15.4 µM, halving of growth (GI50) required 6.2 µM, the IC50 came out at 11.6 µM and the LC50 came out at 36.6 µM. Besides, in the data set with gastric (BGC-823), the “BGC-823 TGI” value amounted to 15.4 µM, the GI50 was 6.1 µM, the IC50 came out at 19.3 µM and the CC50 came to 51 µM. Moreover, in the data set on Breast (MCF-7), the “MCF-7 TGI” value was 15.4 µM, halving of growth (GI50) required 6 µM, 20.4 µM corresponded to half-maximal inhibition (IC50) and the CC50 came to 32.6 µM. Also, in data set [3], the inhibition at 10 µM came out at 46.2%. Also, in data set [4], the Blood drug concentration was determined as 31.6 µM. Also, in the data set with MCF-7, the CC50 was determined as 42.1 µM and the GI50 was found to be 13.1 µM. Further, the half-life in the data set “in vivo” is 3.75 h.

`COc1c(O)c(CN2CCN(CCO)CC2)c(O)c2c(=O)cc(-c3ccccc3)oc12` [Hydroxyethylpiperazine Wogonin, 6-((4-(2-hydroxyethyl)piperazin-1-yl)methyl)-5,7-dihydroxy-8-methoxy-2-phenyl-4H-chromen-4-one] returned an IC50 against Cdk1/Cyclin B of 0.32 µM. The amount in solution in [2] (solubility) came to 9390 µM (≈ 4000 µg/mL). The inhibition at 10 µM with CD4+T lymphocytes is 55%. Moreover, the Blood drug concentration in [4] is 94.0 µM. Besides, in the data set on MCF-7, the CC50 amounted to 43.1 µM and the GI50 came out at 11.1 µM. The same compound had a half-life in “in vivo” of 4 h.

The compound `O=c1cc(-c2ccccc2)oc2c(CN3CCC(O)C3)c(O)c(O)c(O)c12` (stereo not drawn) [Hydroxylpyrrolidine Baicalein, 5,6,7-trihydroxy-8-((3-hydroxypyrrolidin-1-yl)methyl)-2-phenyl-4H-chromen-4-one] gave an IC50 at Cdk1/Cyclin B of 0.29 µM. This lies in the sub-micromolar range.

For the compound `O=c1cc(-c2ccccc2)oc2c(CN3CCC(O)CC3)c(O)c(O)c(O)c12` [Hydroxypiperidin Baicalein, 5,6,7-trihydroxy-8-((4-hydroxypiperidin-1-yl)methyl)-2-phenyl-4H-chromen-4-one], the IC50 at Cdk1/Cyclin B worked out at 0.3 µM. Further, the fraction unbound in [1] stood at 0.09. In [2], this compound showed a solubility of 377 µM (≈ 145 µg/mL). Further, in the data set on Prostate (PC-3), the “PC-3 TGI” value is 16.4 µM, the concentration for 50% growth inhibition (GI50) was 6 µM, the IC50 stood at 18.1 µM and the LC50 was 41 µM. Moreover, in the data set on gastric (BGC-823), the “BGC-823 TGI” value stood at 16.4 µM, it took 5.7 µM to inhibit growth by half (GI50), the IC50 was determined as 18.6 µM and the CC50 is 53.1 µM. In the data set on Breast (MCF-7), the “MCF-7 TGI” value was 16.4 µM; the GI50 is 6 µM; the midpoint of inhibition, the IC50, lay at 20.1 µM; the CC50 was 31 µM. Further, the inhibition at 10 µM in data set [3] was 40.6%. In addition, the inhibition at 10 µM with CD4+T lymphocytes was found to be 46.2%. Also, in data set [4], the Blood drug concentration worked out at 28.7 µM. In the data set on MCF-7, the CC50 stood at 40.1 µM and the GI50 was 10.2 µM. The compound also gave a half-life in “in vivo” of 4.23 h.

Compound `COc1c(O)c(CN2CCC(O)CC2)c(O)c2c(=O)cc(-c3ccccc3)oc12` [Hydroxypiperidine Wogonin, 5,7-dihydroxy-6-((4-hydroxypiperidin-1-yl)methyl)-8-methoxy-2-phenyl-4H-chromen-4-one] yielded an IC50 at Cdk1/Cyclin B of 6.91 µM.

`COc1c(O)c(CN2CCN(C)CC2)c(O)c2c(=O)cc(-c3ccccc3)oc12` [Methylpiperazine Wogonin, 6-((4-methylpiperazin-1-yl)methyl)-5,7-dihydroxy-8-methoxy-2-phenyl-4H-chromen-4-one]: the IC50 at Cdk1/Cyclin B is greater than 25 µM.

Take `O=c1cc(-c2ccccc2)oc2c(CN3CCOCC3)c(O)c(O)c(O)c12` [Morpholine Baicalein]: 0.3 µM corresponded to half-maximal inhibition against Cdk1/Cyclin B (IC50). In addition, in the data set on MCF-7, the CC50 was determined as 48.9 µM and the GI50 was found to be 10.1 µM.

On Cdk1/Cyclin B, `COc1c(O)c(CN2CCOCC2)c(O)c2c(=O)cc(-c3ccccc3)oc12` [Morpholine Wogonin, 5,7-dihydroxy-8-methoxy-6-(morpholinomethyl)-2-phenyl-4H-chromen-4-one] registered an IC50 greater than 25 µM.

On Cdk1/Cyclin B, `O=c1cc(-c2ccccc2)oc2c(CN3CCNCC3)c(O)c(O)c(O)c12` [Piperazine Baicalein] gave an IC50 of 0.28 µM. In data set [2], this compound returned a solubility of 166 µM (≈ 61.2 µg/mL). For the same compound, in the data set with MCF-7, the CC50 worked out at 53.1 µM and the GI50 is 13.8 µM.

In the case of `COc1c(O)c(CN2CCNCC2)c(O)c2c(=O)cc(-c3ccccc3)oc12` [Piperazine Wogonin, 5,7-dihydroxy-8-methoxy-2-phenyl-6-(piperazin-1-ylmethyl)-4H-chromen-4-one], the midpoint of inhibition against Cdk1/Cyclin B, the IC50, lay at 6.62 µM.

Consider `O=c1cc(-c2ccccc2)oc2c(CN3CCCCC3)c(O)c(O)c(O)c12` [Piperidine Baicalein], for which, in the data set on MCF-7, the CC50 was 37.2 µM and the GI50 stood at 10.5 µM.

`COc1c(O)c(CN2CCCCC2)c(O)c2c(=O)cc(-c3ccccc3)oc12` [Piperidine Wogonin, 5,7-dihydroxy-8-methoxy-2-phenyl-6-(piperidin-1-ylmethyl)-4H-chromen-4-one] displayed an IC50 against Cdk1/Cyclin B of 10.5 µM. That is a double-digit micromolar value.

Consider `O=c1cc(-c2ccccc2)oc2c(CN3CCCC3)c(O)c(O)c(O)c12` [Pyrrolidine Baicalein], for which, in the data set on MCF-7, the 50% growth inhibitory concentration (GI50) stood at 10.3 µM.

Take `COc1c(O)c(CN2CCCC2)c(O)c2c(=O)cc(-c3ccccc3)oc12` [Pyrrolidine Wogonin, 5,7-dihydroxy-8-methoxy-2-phenyl-6-(pyrrolidin-1-ylmethyl)-4H-chromen-4-one]: half-maximal inhibition against Cdk1/Cyclin B (IC50) was put at 17.2 µM. In other words, the double-digit micromolar range.

Turning to `O=c1cc(-c2ccccc2)oc2c(CN3CCSCC3)c(O)c(O)c(O)c12` [Sulfurmorpholine Baicalein], in the data set with MCF-7, the CC50 was 84.3 µM and the GI50 is 14.2 µM.

As to `COc1c(O)c(CN2CCSCC2)c(O)c2c(=O)cc(-c3ccccc3)oc12` [Sulfurmorpholine Wogonin, 5,7-dihydroxy-8-methoxy-2-phenyl-6-(thiomorpholinomethyl)-4H-chromen-4-one], the IC50 against Cdk1/Cyclin B amounted to 3.17 µM.

Consider `COc1c(O)cc(O)c2c(=O)cc(-c3ccccc3)oc12` [Wogonin, reference compound], for which, on Cdk1/Cyclin B, the IC50 worked out at 3.5 µM. This IC50 and that of the compound before are within 1.5-fold of each other.
